Reference: ChEMBL document CHEMBL5150077, “Identification of TUL01101: A Novel Potent and Selective JAK1 Inhibitor for the Treatment of Rheumatoid Arthritis” (J Med Chem, 2022)

Experiments:
Homo sapiens [1] = species: Homo sapiens; test: Selectivity index, ratio of IC50 for inhibition of recombinant human TYK2 to IC50 for inhibition of recombinant human JAK1
[2] = molecular target: Non-receptor tyrosine-protein kinase TYK2 (Homo sapiens, UniProt P29597); test: Inhibition of recombinant human TYK2 using GGMEDIYFEFMGGKKK as substrate incubated for 40 mins in presence of Mg/ATP mixture by [gamma p33]-ATP based scintillation counting method
Sequence of Non-receptor tyrosine-protein kinase TYK2 (P29597 whole entry): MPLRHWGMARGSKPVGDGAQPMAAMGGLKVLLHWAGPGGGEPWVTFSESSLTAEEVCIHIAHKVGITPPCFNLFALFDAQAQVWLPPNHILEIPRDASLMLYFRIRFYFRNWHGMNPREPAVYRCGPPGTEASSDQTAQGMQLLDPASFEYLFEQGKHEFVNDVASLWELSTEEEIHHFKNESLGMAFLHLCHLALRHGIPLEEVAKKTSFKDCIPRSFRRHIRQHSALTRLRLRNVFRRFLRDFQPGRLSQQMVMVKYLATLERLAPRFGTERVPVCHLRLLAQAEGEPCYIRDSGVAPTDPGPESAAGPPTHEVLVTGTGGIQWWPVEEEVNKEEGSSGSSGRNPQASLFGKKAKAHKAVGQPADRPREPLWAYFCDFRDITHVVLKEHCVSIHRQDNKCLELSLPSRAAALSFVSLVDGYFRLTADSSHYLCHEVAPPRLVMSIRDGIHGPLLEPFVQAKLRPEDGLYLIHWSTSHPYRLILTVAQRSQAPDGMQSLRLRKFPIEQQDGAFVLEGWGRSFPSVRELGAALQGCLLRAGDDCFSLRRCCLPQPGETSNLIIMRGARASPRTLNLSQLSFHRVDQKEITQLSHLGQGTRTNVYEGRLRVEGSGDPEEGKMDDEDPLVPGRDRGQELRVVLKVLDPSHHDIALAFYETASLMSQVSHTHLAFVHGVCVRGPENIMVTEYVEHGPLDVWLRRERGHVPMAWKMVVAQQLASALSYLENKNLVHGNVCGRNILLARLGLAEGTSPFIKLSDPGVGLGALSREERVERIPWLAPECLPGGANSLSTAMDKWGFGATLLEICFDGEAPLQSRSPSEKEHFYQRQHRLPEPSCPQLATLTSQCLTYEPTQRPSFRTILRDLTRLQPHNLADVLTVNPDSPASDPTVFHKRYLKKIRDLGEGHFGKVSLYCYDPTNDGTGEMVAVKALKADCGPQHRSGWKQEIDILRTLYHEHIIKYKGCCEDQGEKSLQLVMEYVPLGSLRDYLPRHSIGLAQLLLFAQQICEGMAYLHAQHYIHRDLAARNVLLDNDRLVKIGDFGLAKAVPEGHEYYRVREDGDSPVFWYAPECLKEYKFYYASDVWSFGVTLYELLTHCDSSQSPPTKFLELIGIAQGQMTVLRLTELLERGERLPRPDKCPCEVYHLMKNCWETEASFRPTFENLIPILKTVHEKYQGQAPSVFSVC

[3] = molecular target: Tyrosine-protein kinase JAK1 (Homo sapiens, UniProt P23458); test: Inhibition of recombinant human JAK1 using MGEEPLYWSFPAKKK as substrate incubated for 40 mins in presence of Mg/ATP mixture by [gamma p33]-ATP based scintillation counting method
Sequence of Tyrosine-protein kinase JAK1 (P23458 whole entry): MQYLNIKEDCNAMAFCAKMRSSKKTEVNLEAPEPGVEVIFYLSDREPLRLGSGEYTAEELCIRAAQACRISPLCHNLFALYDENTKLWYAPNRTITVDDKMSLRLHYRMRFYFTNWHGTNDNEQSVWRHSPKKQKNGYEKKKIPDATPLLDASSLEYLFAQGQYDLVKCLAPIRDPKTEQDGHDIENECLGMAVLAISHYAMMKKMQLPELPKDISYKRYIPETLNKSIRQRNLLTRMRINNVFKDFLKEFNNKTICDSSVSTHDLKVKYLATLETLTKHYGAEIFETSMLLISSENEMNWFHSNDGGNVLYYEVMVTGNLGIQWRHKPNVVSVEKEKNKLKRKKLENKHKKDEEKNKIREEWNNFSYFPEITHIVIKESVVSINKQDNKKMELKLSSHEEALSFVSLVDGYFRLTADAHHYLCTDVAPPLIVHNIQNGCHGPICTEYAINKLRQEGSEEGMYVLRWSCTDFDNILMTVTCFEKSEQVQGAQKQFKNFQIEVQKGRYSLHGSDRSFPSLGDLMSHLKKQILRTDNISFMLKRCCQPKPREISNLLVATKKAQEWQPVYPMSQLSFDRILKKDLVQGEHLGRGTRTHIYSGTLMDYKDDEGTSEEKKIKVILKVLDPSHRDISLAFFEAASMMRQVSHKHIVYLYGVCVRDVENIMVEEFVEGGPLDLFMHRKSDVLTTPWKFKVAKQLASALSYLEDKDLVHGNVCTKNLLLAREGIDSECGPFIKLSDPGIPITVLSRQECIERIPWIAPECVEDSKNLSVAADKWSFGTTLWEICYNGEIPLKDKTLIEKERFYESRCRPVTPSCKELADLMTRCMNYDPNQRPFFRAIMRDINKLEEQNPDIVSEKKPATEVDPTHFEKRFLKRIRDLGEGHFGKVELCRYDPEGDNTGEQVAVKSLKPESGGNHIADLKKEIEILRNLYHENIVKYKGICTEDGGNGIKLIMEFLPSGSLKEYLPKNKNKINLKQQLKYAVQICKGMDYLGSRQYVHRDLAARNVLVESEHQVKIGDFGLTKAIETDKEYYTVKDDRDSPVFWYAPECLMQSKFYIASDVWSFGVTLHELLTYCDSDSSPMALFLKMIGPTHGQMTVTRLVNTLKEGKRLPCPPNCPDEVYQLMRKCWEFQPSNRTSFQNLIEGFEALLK

[4] = molecular target: T1, Tyrosine-protein kinase JAK3 (Homo sapiens, UniProt P52333); test: Inhibition of recombinant human JAK3 using GGEEEEYFELVKKKK as substrate incubated for 40 mins in presence of Mg/ATP mixture by [gamma p33]-ATP based scintillation counting method
T1 sequence (P52333 whole entry): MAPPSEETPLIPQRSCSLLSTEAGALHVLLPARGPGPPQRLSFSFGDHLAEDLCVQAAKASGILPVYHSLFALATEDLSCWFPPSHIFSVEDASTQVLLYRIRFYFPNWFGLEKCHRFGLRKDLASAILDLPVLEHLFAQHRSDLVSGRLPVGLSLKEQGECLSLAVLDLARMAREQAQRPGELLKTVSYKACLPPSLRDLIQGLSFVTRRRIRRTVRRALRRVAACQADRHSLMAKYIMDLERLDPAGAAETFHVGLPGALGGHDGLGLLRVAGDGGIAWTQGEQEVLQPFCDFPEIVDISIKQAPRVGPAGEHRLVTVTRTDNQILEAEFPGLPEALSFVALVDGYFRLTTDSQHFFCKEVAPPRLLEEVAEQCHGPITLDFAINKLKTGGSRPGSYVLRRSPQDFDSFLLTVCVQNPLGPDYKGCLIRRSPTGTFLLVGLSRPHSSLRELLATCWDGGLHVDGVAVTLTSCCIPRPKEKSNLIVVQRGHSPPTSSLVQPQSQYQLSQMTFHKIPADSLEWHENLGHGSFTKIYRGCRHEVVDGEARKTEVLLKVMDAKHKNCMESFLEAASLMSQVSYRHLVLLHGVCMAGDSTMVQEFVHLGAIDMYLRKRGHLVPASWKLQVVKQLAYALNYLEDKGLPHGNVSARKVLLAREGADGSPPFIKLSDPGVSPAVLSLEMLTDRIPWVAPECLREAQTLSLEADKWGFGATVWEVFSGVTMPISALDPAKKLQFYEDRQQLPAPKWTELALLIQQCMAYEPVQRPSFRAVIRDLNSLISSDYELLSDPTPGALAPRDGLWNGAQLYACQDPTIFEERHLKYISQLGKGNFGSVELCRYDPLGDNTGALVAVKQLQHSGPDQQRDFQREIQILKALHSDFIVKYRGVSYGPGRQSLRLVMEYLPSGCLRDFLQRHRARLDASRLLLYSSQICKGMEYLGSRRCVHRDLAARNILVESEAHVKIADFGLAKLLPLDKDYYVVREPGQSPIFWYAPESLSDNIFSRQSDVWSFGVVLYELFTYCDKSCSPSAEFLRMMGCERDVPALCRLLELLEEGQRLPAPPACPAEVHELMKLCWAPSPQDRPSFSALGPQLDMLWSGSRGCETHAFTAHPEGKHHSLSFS

Homo sapiens [5] = species: Homo sapiens; test: Selectivity index, ratio of IC50 for inhibition of recombinant human JAK2 to IC50 for inhibition of recombinant human JAK1
[6] = molecular target: Tyrosine-protein kinase JAK2 (Homo sapiens, UniProt O60674); test: Inhibition of recombinant human JAK2 using KTFCGTPEYLAPEVRREPRILSEEEQEMFRDFDYIADWC as substrate incubated for 40 mins in presence of Mg/ATP mixture by [gamma p33]-ATP based scintillation counting method
Sequence of Tyrosine-protein kinase JAK2 (O60674 whole entry): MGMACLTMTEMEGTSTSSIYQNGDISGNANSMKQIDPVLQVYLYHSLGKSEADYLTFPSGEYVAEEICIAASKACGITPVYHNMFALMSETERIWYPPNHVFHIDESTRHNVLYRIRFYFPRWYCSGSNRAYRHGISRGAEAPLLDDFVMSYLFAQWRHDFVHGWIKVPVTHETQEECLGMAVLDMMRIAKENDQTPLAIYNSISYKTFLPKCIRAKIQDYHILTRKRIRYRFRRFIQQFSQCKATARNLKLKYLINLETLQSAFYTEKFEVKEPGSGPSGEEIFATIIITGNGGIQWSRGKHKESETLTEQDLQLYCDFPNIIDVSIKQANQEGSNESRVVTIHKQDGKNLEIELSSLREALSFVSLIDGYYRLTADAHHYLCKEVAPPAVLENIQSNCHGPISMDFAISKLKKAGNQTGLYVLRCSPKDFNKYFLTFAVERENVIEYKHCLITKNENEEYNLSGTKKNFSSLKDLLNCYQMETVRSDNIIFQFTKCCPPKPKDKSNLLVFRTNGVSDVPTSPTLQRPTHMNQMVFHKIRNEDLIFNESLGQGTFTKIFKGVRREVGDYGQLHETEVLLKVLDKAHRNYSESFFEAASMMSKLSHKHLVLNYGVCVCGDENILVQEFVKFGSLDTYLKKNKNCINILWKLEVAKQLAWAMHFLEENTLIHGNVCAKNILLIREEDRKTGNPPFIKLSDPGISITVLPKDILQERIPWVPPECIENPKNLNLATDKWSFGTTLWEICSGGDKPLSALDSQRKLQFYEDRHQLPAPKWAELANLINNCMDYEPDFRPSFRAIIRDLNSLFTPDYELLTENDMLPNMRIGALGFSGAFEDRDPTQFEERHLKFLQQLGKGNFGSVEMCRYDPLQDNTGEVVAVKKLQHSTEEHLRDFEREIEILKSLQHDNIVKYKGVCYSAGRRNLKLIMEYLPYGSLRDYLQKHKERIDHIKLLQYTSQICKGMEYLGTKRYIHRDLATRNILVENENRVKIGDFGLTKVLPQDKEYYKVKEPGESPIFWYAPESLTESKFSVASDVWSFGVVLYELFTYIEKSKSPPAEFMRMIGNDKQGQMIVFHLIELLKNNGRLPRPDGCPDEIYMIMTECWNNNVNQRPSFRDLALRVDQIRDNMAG

SMILES	Ratio IC50 (Homo sapiens [1])	IC50 [2]	IC50 [3]	IC50 [4]	Ratio IC50 (Homo sapiens [5])	IC50 [6]
O=C(Nc1nc2cccc(C3=CC[C@@H](NC(=O)[C@@H]4CC4(F)F)CC3)n2n1)C1CC1	8.4	1.37 µM	0.163 µM	–	–	–
O=C(Nc1nc2cccc(C3=CC[C@@H](NC(=O)[C@H]4CC4(F)F)CC3)n2n1)C1CC1	5.7	0.942 µM	0.166 µM	–	–	–
O=C(Nc1nc2cccc(C3=CCC(NC(=O)C4CC4(F)F)CC3)n2n1)C1CC1 (stereo not drawn)	3.6	–	–	–	11.9	–
O=C(Nc1nc2cccc([C@H]3CC[C@H](NC(=O)[C@H]4CC4(F)F)CC3)n2n1)C1CC1	16.9	5.76 µM	0.341 µM	> 10 µM	23.7	8.07 µM
O=C(Nc1nc2cccc(C3=CC[C@H](NC(=O)[C@H]4CC4(F)F)CC3)n2n1)C1CC1	4.2	–	–	–	7.4	–
O=C(Nc1nc2cccc(C3=CCN(C(=O)C4CC4)CC3)n2n1)C1CC1	2	–	–	–	4.7	–
N#CC1(C(=O)N2CC3(CCC(c4cccc5nc(NC(=O)C6CC6)nn45)CC3)C2)CC1	–	0.018 µM	0.015 µM	> 10 µM	–	–
CC(C)(C#N)C(=O)N1CC2(CCC(c3cccc4nc(NC(=O)C5CC5)nn34)CC2)C1	–	0.106 µM	0.02 µM	9.67 µM	–	–
O=C(Nc1nc2cccc([C@H]3CC[C@@H](NC(=O)[C@H]4CC4(F)F)CC3)n2n1)C1CC1	9.5	0.455 µM	0.048 µM	> 10 µM	20	0.962 µM
O=C(Nc1nc2cccc(C3=CCC(NC(=O)C4CC4)CC3)n2n1)C1CC1 (stereo not drawn)	3.3	–	–	–	9.5	–
O=C(Nc1nc2cccc([C@H]3CC[C@H](NC(=O)[C@@H]4CC4(F)F)CC3)n2n1)C1CC1	9.6	1.74 µM	0.181 µM	> 10 µM	26.3	4.75 µM
O=C(Nc1nc2cccc(C3=CC[C@H](NC(=O)[C@@H]4CC4(F)F)CC3)n2n1)C1CC1	6.5	0.078 µM	0.012 µM	5.52 µM	11.8	0.141 µM
O=C(Nc1nc2cccc(C3=CCN(C(=O)C4(F)CC4)C3)n2n1)C1CC1	5.4	–	–	–	2.1	–

Continued, values first:

Ratio IC50 (Homo sapiens [1])	IC50 [2]	IC50 [3]	IC50 [4]	Ratio IC50 (Homo sapiens [5])	IC50 [6]	SMILES
–	0.83 µM	0.063 µM	> 10 µM	–	–	O=C(Nc1nc2cccc([C@H]3CCC4(C3)CN(C(=O)[C@@H]3CC3(F)F)C4)n2n1)C1CC1
–	0.371 µM	0.065 µM	> 10 µM	–	–	N#CCCN1CC2(CCC(c3cccc4nc(NC(=O)C5CC5)nn34)CC2)C1
–	0.581 µM	0.114 µM	> 10 µM	–	–	N#CCN1CC2(CCC(c3cccc4nc(NC(=O)C5CC5)nn34)CC2)C1
–	–	–	> 10 µM	–	–	O=C(Nc1nc2cccc(C3=CCN(C(=O)C4CC4(F)F)C3)n2n1)C1CC1 (stereo not drawn)
1.5	0.57 µM	0.381 µM	> 10 µM	5	1.92 µM	O=C(Nc1nc2cccc([C@@H]3CCC4(CCN(C(=O)[C@@H]5CC5(F)F)CC4)C3)n2n1)C1CC1
1.3	0.026 µM	0.02 µM	2.32 µM	4	0.08 µM	N#CCC(=O)N1CCC2(CCC(c3cccc4nc(NC(=O)C5CC5)nn34)CC2)CC1
–	0.404 µM	0.176 µM	> 10 µM	–	–	O=C(Nc1nc2cccc([C@@H]3CCC4(C3)CN(C(=O)[C@@H]3CC3(F)F)C4)n2n1)C1CC1
13.2	0.829 µM	0.063 µM	9.39 µM	15.8	0.998 µM	O=C(Nc1nc2cccc([C@H]3CCC4(CCN(C(=O)[C@@H]5CC5(F)F)CC4)C3)n2n1)C1CC1
2.9	0.155 µM	0.054 µM	> 10 µM	5.4	0.294 µM	O=C(Nc1nc2cccc(C3CCC4(CC3)CCN(C(=O)CC(F)(F)F)CC4)n2n1)C1CC1
3.3	–	–	–	7.7	–	O=C(Nc1nc2cccc(C3CCC(NC(=O)C4CC4(F)F)CC3)n2n1)C1CC1 (stereo not drawn)
11.6	1.53 µM	0.131 µM	> 10 µM	20.8	2.73 µM	O=C(Nc1nc2cccc(C3CCC4(CC3)CCN(C(=O)CC(F)(F)F)C4)n2n1)C1CC1 (stereo not drawn)
4.1	0.278 µM	0.068 µM	> 10 µM	7.6	0.52 µM	N#CCC(=O)N1CCC2(CCC(c3cccc4nc(NC(=O)C5CC5)nn34)CC2)C1 (stereo not drawn)
9.2	0.692 µM	0.075 µM	7.35 µM	10.5	0.789 µM	O=C(Nc1nc2cccc(C3CCC4(CC3)CCN(C(=O)[C@H]3CC3(F)F)C4)n2n1)C1CC1 (stereo partly drawn)
